Experimental data reported in US20250064789A1, “KETOAMIDE DERIVATIVES AND PHARMACEUTICAL USES THEREOF” (priority 2022, published 2025).

Columns and labels:
[1] = target: recombinant SARS-CoV-2 M^pro (Severe acute respiratory syndrome coronavirus 2 (2019-nCoV) (SARS-CoV-2), UniProt P0DTD1); assay: Inhibition of SARS-CoV-2 M^pro enzyme activity (fluorescent substrate assay); assay type: biochemical; settings: inhibition of SARS-CoV-2 M^pro enzyme activity; values in nM; read-out: IC50
[2] = Cytotoxic assay against Vero E6 cells (MTT, 72 h); assay type: cell-based; settings: African green monkey
Procedure: The cytotoxicity assessment of compounds was performed against Vero E6 cells. The specific experimental procedures: Vero E6 cells were seeded into a 96-well plate at a cell density of 2×10^4 cells/well, with 100 μL/well, and then incubated overnight at 37° C. in a 5% CO2 incubator. The next day, 100 μL of drug-containing medium was added to each well. The compound was diluted in a 2-fold serial dilution with a top concentration of […], for a total of 6 gradients. Three repeated wells were set for each concentration, and negative controls and blank controls without drugs were included for each experiment. […] All experimental data were analyzed using GraphPad Prism software.

[3] = Cytotoxic assay against human BEAS-2B cells (MTT, 72 h); assay type: cell-based; settings: human
Procedure: (§1) BEAS-2B cells (normal human bronchial epithelial cells) and HUVEC cells (human umbilical vein endothelial cells) were used to evaluate the cytotoxicity of compounds against human-derived cells. The detailed experimental procedures: BEAS-2B cells or HUVEC cells were seeded into a 96-well plate at a cell density of 2×10^4 cells/well, that is, 100 µL/well, and then incubated overnight at 37° C. in a 5% CO2 incubator. The next day, 100 μL of drug-containing medium was added to each well. The compound was diluted in a 2-fold serial dilution with a top concentration of […], for a total of 6 gradients. Three repeated wells were set for each concentration, and negative controls and blank controls without drugs were included for each experiment. […] All experimental data were analyzed using GraphPad Prism software.

[4] = Cytotoxic assay against HUVEC cells (MTT, 72 h); assay type: cell-based, human; settings: human
Procedure: as §1

[5] = Metabolic stability using human liver microsomes; assay type: in vitro ADME; settings: pH 7.4, NADPH, 37° C., read-out: Human liver microsomes T1/2
[6] = male, Sprague-Dawley, rat, in vivo, iv, 1 mg/kg
in vivo = settings: male, Sprague-Dawley, rat

## O=C(CC1CC(F)(F)C1)NCC(=O)N[C@H](Cc1ccccc1)C(=O)C(=O)NCc1nccs1 [Compound 387]
[1]
  IC50: 12.5 ± 1.2 nM
[2]
  CC50 at 72 h: > 500 µM
[3]
  CC50 at 72 h: > 500 µM
[4]
  CC50 at 72 h: > 500 µM

## C[C@@H](NC(=O)C1CCC(F)(F)CC1)C(=O)N[C@H](Cc1ccco1)C(=O)C(=O)NCc1ccccn1 [Compound 362]
[1]
  IC50: 34 ± 0.6 nM
[2]
  CC50 at 72 h: > 500 µM
[3]
  CC50 at 72 h: > 500 µM
[4]
  CC50 at 72 h: > 500 µM
[5]
  half-life at 1 µM: 0.561 h

## O=C(CC1CCC(F)(F)CC1)NCC(=O)N[C@H](Cc1ccccc1)C(=O)C(=O)NCc1ccccn1 [Compound 150]
[1]
  IC50: 12.2 ± 0.1 nM
[2]
  CC50 at 72 h: > 500 µM
[6]
  Vssobs: 2.91 ± 1.48 L/kg
In vivo; iv, 1 mg/kg
  AUC(0-inf): 6630 ± 2650 ng·h/mL
  AUC(0-t): 6420 ± 2820 ng·h/mL
  Cmax: 2010 ± 322 ng/mL
  MRT inf: 3.94 ± 1.26 h
  Tmax: 0.08 h
  clearance: 0.83 ± 0.21 mL/min/kg
  half-life: 3.59 ± 0.8 h
In vivo; po, 10 mg/kg
  AUC(0-inf): 12900 ± 3230 ng·h/mL
  AUC(0-t): 12600 ± 3080 ng·h/mL
  Cmax: 1300 ± 307 ng/mL
  MRT inf: 5.95 ± 0.09 h
  Tmax: 0.42 ± 0.14 h
  bioavailability: 19.7 ± 4.8%
  half-life: 4.26 ± 0.63 h

## C[C@@H](NC(=O)C1CCC(F)(F)C1)C(=O)N[C@H](Cc1ccccc1)C(=O)C(=O)NCc1cscn1 (some centres unmarked) [Compound 415]
[1]
  IC50: 19.4 ± 2.2 nM
[2]
  CC50 at 72 h: > 500 µM
[3]
  CC50 at 72 h: > 500 µM
[4]
  CC50 at 72 h: 468 µM

## O=C(CNC(=O)C1CCC(F)(F)CC1)N[C@H](Cc1ccccc1)C(=O)C(=O)NCc1ccccn1 [Compound 155]
[1]
  IC50: 14.1 ± 0.1 nM
[2]
  CC50 at 72 h: 281 µM
[6]
  Vssobs: 3.29 ± 0.42 L/kg
In vivo; iv, 1 mg/kg
  AUC(0-inf): 5120 ± 628 ng·h/mL
  AUC(0-t): 5100 ± 615 ng·h/mL
  Cmax: 1570 ± 7.88 ng/mL
  MRT inf: 3.99 ± 0.42 h
  Tmax: 0.08 h
  clearance: 0.88 ± 0.1 mL/min/kg
  half-life: 3.12 ± 0.35 h
In vivo; po, 10 mg/kg
  AUC(0-inf): 12400 ± 2230 ng·h/mL
  AUC(0-t): 12300 ± 2270 ng·h/mL
  Cmax: 1150 ± 289 ng/mL
  MRT inf: 5.98 ± 0.36 h
  Tmax: 0.33 ± 0.14 h
  half-life: 3.75 ± 0.62 h

## C[C@@H](NC(=O)C1CCCC(F)(F)C1)C(=O)N[C@H](Cc1ccccc1)C(=O)C(=O)NCc1nccs1 (some centres unmarked) [Compound 375]
[1]
  IC50: 13.8 ± 1.2 nM
[2]
  CC50 at 72 h: > 500 µM
[3]
  CC50 at 72 h: 325 µM
[4]
  CC50 at 72 h: 384 µM

## CC(C)(C)[C@H](NC(=O)C(F)(F)F)C(=O)N1C[C@H]2[C@@H]([C@H]1C(=O)N[C@H](C#N)C[C@@H]1CCNC1=O)C2(C)C [PF-07321332, Nirmatrelvir, reference compound]
[5]
  half-life at 1 µM: 0.353 h

## C[C@@H](NC(=O)[C@@H]1C[C@@H]2[C@H](C1)C2(F)F)C(=O)N[C@H](Cc1ccccc1)C(=O)C(=O)NCc1ccccn1 [Compound 126]
[1]
  IC50: 11.1 ± 0.6 nM
[2]
  CC50 at 72 h: > 500 µM
[6]
  Vssobs: 16.6 ± 5.41 L/kg
In vivo; iv, 1 mg/kg
  AUC(0-inf): 1070 ± 295 ng·h/mL
  AUC(0-t): 1050 ± 285 ng·h/mL
  Cmax: 1860 ± 138 ng/mL
  MRT inf: 1.06 ± 0.56 h
  Tmax: 0.08 h
  clearance: 4.63 ± 3.62 mL/min/kg
  half-life: 3.65 ± 3.48 h
In vivo; po, 10 mg/kg
  AUC(0-inf): 5270 ± 327 ng·h/mL
  AUC(0-t): 5270 ± 325 ng·h/mL
  Cmax: 1559 ± 11.6 ng/mL
  MRT inf: 4.02 ± 0.17 h
  Tmax: 0.5 h
  bioavailability: 49.9 ± 3.08%
  half-life: 2.46 ± 0.15 h

## C[C@@H](NC(=O)CC1CC(F)(F)C1)C(=O)N[C@H](Cc1ccccc1)C(=O)C(=O)NCc1cscn1 [Compound 418]
[1]
  IC50: 10.6 ± 0.3 nM
[2]
  CC50 at 72 h: > 500 µM
[3]
  CC50 at 72 h: > 500 µM
[4]
  CC50 at 72 h: > 500 µM

## O=C(CC1CC(F)(F)C1)NCC(=O)N[C@H](Cc1ccccc1)C(=O)C(=O)NCc1cscn1 [Compound 423]
[1]
  IC50: 13.2 ± 0.2 nM
[2]
  CC50 at 72 h: > 500 µM
[3]
  CC50 at 72 h: > 500 µM
[4]
  CC50 at 72 h: > 500 µM

## O=C(NCc1nccs1)C(=O)[C@@H](Cc1ccccc1)NC(=O)[C@H]1CC(F)(F)CN1C(=O)C1CCC(F)(F)CC1 [Compound 402]
[1]
  IC50: 19.9 ± 0.3 nM
[2]
  CC50 at 72 h: 410 µM
[3]
  CC50 at 72 h: > 500 µM
[4]
  CC50 at 72 h: 327 µM
